Reference: patent US20200190062A1, “HETEROCYCLIC COMPOUND AND PHARMACEUTICAL COMPOSITION COMPRISING SAME” (BEYONDBIO INC., priority 2015, published 2020)
Structures can show the parent of a compound that is named as a salt.

Columns and labels:
Assay in all cases: Inhibition of cancer cell proliferation (MTT)
Assay type in all cases: cell-based, human
NCI-H23 = system: NCI-H23
Experimental: (§1) A test was conducted to confirm whether the compounds obtained in the above Examples can inhibit proliferation of human colon carcinoma cell line HCT116, glioblastoma cell lines U-87MG and T98G, neuroblastoma cell lines SH-SYSY and SK-N-SH, and lung cancer cell lines A549 and NCI-H23.
(§2) HCT116, U-87MG, SH-SYSY, SK-N-SH and A549 cells were culured in DMEM medium containing 10% FBS. T98G cells were cultured in MEM medium containing 10% FBS and NCI-H23 cells were cultured in […] medium containing 10% FBS. In order to analyze an inhibition of proliferation, HCT116 cells were dispensed in 2000 cells/well into 96 well plate, and SH-SYSY, SK-N-SH, U-87MG, T98G, A549, and NCI-H23 cells were dispensed in 3000 cells/well into 96 well plate. And then, the cells were cultured at 5% CO2 and 37° C. for 16 hrs to allow the cells to attach to the wells. The compounds of the above Examples were added to each well at a concentration of 0.004, 0.013, 0.04, 0.12, 0.37, 1.1, 3.3, and 10 uM, and the culture volume was adjusted to 100 ul. A control group was treated with dimethylsulfoxide (DMSO) at the same concentration, 0.08%, as used to treat the test compounds. Afterwards, cells were cultured at 5% CO2 and 37° C. for 72 hrs. And then, 10 ul of the solution of MTT (3-(4,5-dimethylthiazol-2-yl)-2,5-diphenyltetrazolium bromide) dissolved in PBS at 5 mg/ml was added to each well to identify viable cells and the cells were cultured for further 2 hrs. The culture solution was removed, 100 ul of DMSO was added to dissolve the formed formazan and then an absorbance was measured at 535 nm. Based on the absorbance of the control cells not treated with the compounds, the amounts of the viable cells according to the concentration of the compounds were calculated. GI50 (growth inhibition 50) value which is the concentration of the compound to inhibit cancer cell proliferation by 50% was calculated using Graphpad Prism 5.0 program.

T98G = system: T98G
Experimental: as §1, §2

A549 = system: A549
Experimental: as §1, §2

U-87MG = system: U-87MG
Experimental: as §1, §2

HCT116 = system: HCT116
Experimental: as §1, §2

Row | Compound | GI50 (NCI-H23; Homo sapiens, NCI-H23, 72 h) | GI50 (T98G; Homo sapiens, T98G, 72 h) | GI50 (A549; 72 hrs) | GI50 (U-87MG; Homo sapiens, U-87 MG, 72 h) | GI50 (HCT116; Homo sapiens, HCT-116, 72 h) | GI50 (NCI-H23; 72 hrs) | GI50 (T98G; 72 hrs) | GI50 (U-87MG; 72 hrs) | GI50 (HCT116; 72 hrs) | GI50 (A549; Homo sapiens, A549, 72 h)
1 | CCCc1c(-c2nc(-c3ccnc(N)c3F)ccc2O)nc(N)nc1C1CCN(C(C)C)CC1 [Example 106, 2′-amino-6-(2-amino-6-(1-isopropylpiperidin-4-yl)-5-propylpyrimidin-4-yl)-3′-fluoro-[2,4′-bipyridin]-5-ol 4hydrochloride] |  |  | 820 nM |  |  | 170 nM | 140 nM | 90 nM | 60 nM | 
2 | CCc1c(-c2nc(-c3ccnc(N)c3F)ccc2O)nc(N)nc1C1CCN(C(C)C)CC1 [Example 105] |  |  | 60 nM |  |  | 90 nM | 60 nM | 40 nM | 30 nM | 
3 | CC(C)N1CCCC(c2cc(-c3nc(-c4ccnc(N)c4F)ccc3O)nc(N)n2)C1 (stereo not shown) [Example 41, 2′-amino-6-(2-amino-6-(1-isopropylpiperidin-3-yl)pyrimidin-4-yl)-3′-fluoro-[2,4′-bipyridin]-5-ol] | 70 nM | 110 nM |  | 40 nM | 20 nM |  |  |  |  | 40 nM
4 | Cc1c(-c2nc(-c3ccnc(N)c3F)ccc2O)nc(N)nc1C1CCN(C)CC1 [Example 42, 2′-amino-6-(2-amino-5-methyl-6-(1-methylpiperidin-4-yl)pyrimidin-4-yl)-3′-fluoro-[2,4′-bipyridin]-5-ol] |  |  | 380 nM |  |  | 890 nM | 400 nM | 270 nM | 180 nM | 
5 | CC(C)N1CCCC(c2cc(-c3nc(-c4ccnc(N)c4F)ccc3O)nc(N)n2)C1 (stereo not shown) [Example 92, 2′-amino-6-(2-amino-6-(1-isopropylpiperidin-3-yl)pyrimidin-4-yl)-3′-fluoro[2,4′-bipyridin]-5-ol 4hydrochloride] |  |  | 30 nM |  |  | 50 nM | 90 nM | 30 nM | 20 nM | 
6 | Cc1c(-c2nc(-c3ccnc(N)c3F)ccc2O)nc(N)nc1C1CCCN(C)C1 (stereo not shown) [Example 97] |  |  | 160 nM |  |  | 290 nM | 160 nM | 120 nM | 110 nM | 
7 | Cc1c(-c2nc(-c3ccnc(N)c3F)ccc2O)nc(N)nc1C1CCN(C(C)C)CC1 [Example 96, 2′-amino-6-(2-amino-6-(1-isopropylpiperidin-4-yl)-5-methylpyrimidin-4-yl)-3′-fluoro-[2,4′-bipyridin]-5-ol 4hydrochloride] |  |  | 130 nM |  |  | 210 nM | 190 nM | 80 nM | 60 nM | 
8 | CCN1CCC(c2nc(N)nc(-c3nc(-c4ccnc(N)c4F)ccc3O)c2C)CC1 [Example 43, 2′-amino-6-(2-amino-6-(1-ethylpiperidin-4-yl)-5-methylpyrimidin-4-yl)-3′-fluoro-[2,4′-bipyridin]-5-ol] | 960 nM | 460 nM |  | 280 nM | 230 nM |  |  |  |  | 460 nM
9 | CCCN1CCCC(c2nc(N)nc(-c3nc(-c4ccnc(N)c4F)ccc3O)c2C)C1 (stereo not shown) [Example 98, 2′-amino-6-(2-amino-5-methyl-6-(1-propylpiperidin-3-yl)pyrimidin-4-yl)-3′-fluoro-[2,4′-bipyridin]-5-ol 4hydrochloride] |  |  | 1300 nM |  |  | 2060 nM | 1750 nM | 970 nM | 890 nM | 

More lines, now with the values ahead:

Row | GI50 (NCI-H23; Homo sapiens, NCI-H23, 72 h) | GI50 (T98G; Homo sapiens, T98G, 72 h) | GI50 (A549; 72 hrs) | GI50 (U-87MG; Homo sapiens, U-87 MG, 72 h) | GI50 (HCT116; Homo sapiens, HCT-116, 72 h) | GI50 (NCI-H23; 72 hrs) | GI50 (T98G; 72 hrs) | GI50 (U-87MG; 72 hrs) | GI50 (HCT116; 72 hrs) | GI50 (A549; Homo sapiens, A549, 72 h) | Compound
10 | 30 nM | 50 nM | 10 nM | 20 nM | 10 nM |  |  |  |  |  | CCCN1CCCC(c2cc(-c3nc(-c4ccnc(N)c4F)ccc3O)nc(N)n2)C1 (stereo not shown) [Example 40, 2′-amino-6-(2-amino-6-(1-propylpiperidin-3-yl)pyrimidin-4-yl)-3′-fluoro-[2,4′-bipyridin]-5-ol]
11 |  |  | 10 nM |  |  | 30 nM | 30 nM | 10 nM | 3 nM |  | CN1CCC(c2cc(-c3nc(-c4ccnc(N)c4F)ccc3O)nc(N)n2)CC1 [Example 77, 2′-amino-6-(2-amino-(6-(1-methylpiperidin-4-yl)pyrimidin-4-yl)-3′-fluoro-[2,4′-bipyridin]-5-ol 4hydrochloride]
12 |  |  | 20 nM |  |  | 50 nM | 190 nM | 30 nM | 10 nM |  | CCN1CCC(c2cc(-c3nc(-c4ccnc(N)c4F)ccc3O)nc(N)n2)CC1 [Example 86, 2′-amino-6-(2-amino-6-(1-ethylpiperidin-4-yl)pyrimidin-4-yl)-3′-fluoro-[2,4′-bipyridin]-5-ol 4hydrochloride]
13 | 50 nM | 20 nM |  | 10 nM |  |  |  |  | 10 nM | 20 nM | CCCN1CCC(c2cc(-c3nc(-c4ccnc(N)c4F)ccc3O)nc(N)n2)CC1 [Example 36, 2′-amino-6-(2-amino-6-(1-propylpiperidin-4-yl)pyrimidin-4-yl)-3′-fluoro-[2,4′-bipyridin]-5-ol]
14 |  |  | 80 nM |  |  | 150 nM | 160 nM | 100 nM | 60 nM |  | CCCN1CCC(c2nc(N)nc(-c3nc(-c4ccnc(N)c4F)ccc3O)c2C)CC1 [Example 95, 2′-amino-6-(2-amino-5-methyl-6-(1-propylpiperidin-4-yl)pyrimidin-4-yl)-3′-fluoro-[2,4′-bipyridin]-5-ol 4hydrochloride]
15 | 130 nM | 110 nM |  | 70 nM | 40 nM |  |  |  |  | 70 nM | CNc1nc(-c2nc(-c3ccnc(N)c3F)ccc2O)cc(C2CCN(C)CC2)n1 [Example 59, 2′-amino-3′-fluoro-6-(2-(methylamino)-6-(1-methylpiperidin-4-yl)pyrimidin-4-yl)-[2,4′-bipyridin]-5-ol]
16 | 190 nM | 110 nM |  | 100 nM | 30 nM |  |  |  |  | 80 nM | Nc1nc(-c2nc(-c3ccnc(N)c3F)ccc2O)cc(C2CCOCC2)n1 [Example 32, 2′-amino-6-(2-amino-6-(tetrahydro-2H-pyran-4-yl)pyrimidin-4-yl)-3′-fluoro-[2,4′-bipyridin]-5-ol]
17 | 60 nM | 30 nM |  | 10 nM |  |  |  |  | 10 nM | 20 nM | CC(C)N1CCC(c2cc(-c3nc(-c4ccnc(N)c4F)ccc3O)nc(N)n2)CC1 [Example 37, 2′-amino-6-(2-amino-6-(1-isopropylpiperidin-4-yl)pyrimidin-4-yl)-3′-fluoro-[2,4′-bipyridin]-5-ol]
18 |  |  | 20 nM |  |  | 40 nM | 20 nM | 10 nM | 40 nM |  | CC(C)N1CCC(c2cc(-c3nc(-c4ccnc(N)c4F)ccc3O)nc(N)n2)CC1 [Example 88, 2′-amino-6-(2-amino-6-(1-isopropylpiperidin-4-yl)pyrimidin-4-yl)-3′-fluoro-[2,4′-bipyridin]-5-ol 4hydrochloride]
19 |  |  | 120 nM |  |  | 1180 nM | 150 nM | 90 nM | 30 nM |  | Nc1nc(-c2nc(-c3ccnc(N)c3F)ccc2O)cc(C2CCNCC2)n1 [Example 83, 2′-amino-6-(2-amino-6-(piperidin-4-yl)pyrimidin-4-yl)-3′-fluoro-[2,4′-bipyridin]-5-ol 4hydrochloride]
20 |  |  | 30 nM |  |  | 50 nM | 70 nM | 30 nM | 20 nM |  | CCCN1CCCC(c2cc(-c3nc(-c4ccnc(N)c4F)ccc3O)nc(N)n2)C1 (stereo not shown) [Example 91, 2′-amino-6-(2-amino-6-(1-propylpiperidin-3-yl)pyrimidin-4-yl)-3′-fluoro-[2,4′-bipyridin]-5-ol 4hydrochloride]
